For test [1], the system named is A2058. Kind of test: WST-1 cell proliferation assay (Example 2). It counts as cell-based. The note with it: for sensitivity of the cell line compared to other cell lines (e.g. A375, Mel888): A2058, short-term and long-term proliferation assays, Example 2; for IC50: A2058, 48 h. The protocol: (§1) Cell viability was determined using the WST-1 cell proliferation assay. Data are means±s.d. (n=3). FIG. 7B: Long-term colony formation assay of the indicated cell lines. Cells were grown in the absence or presence of vemurafenib at the indicated concentrations for two weeks. For each cell line, all dishes were fixed at the same time, stained and photographed.
(§2) Cell viability was determined using the WST-1 cell proliferation assay. Data are means±s.d. (n=4). […] The upper left region of the figure represents increasing degrees of synergy. The minimum and maximum Bliss index values were shown as an interval within square brackets under each isobologram. The Bliss index was calculated as the ratio Observed/Expected where an index=1, […] and >1 indicates additive, antagonistic and synergistic effects, respectively.
(§3) Cell proliferation was measured using a WST-1 reagent (Roche Applied Science, IN, USA). Melanoma cells were plated (5000 cells per well) in 96-well tissue culture plates. After 24 h, the cells were treated with drugs or DMSO at the indicated concentrations, in triplicates. WST-1 reagent was added to the wells and incubated at 37° C. for 2 h before and after the treatment period of 48 h. […] Cell proliferation is expressed as percent of the absorbance compared to mock-treated cells.
(§4) For clonogenic assays, cells were plated at low density (1×10^3 cells per well in a 6-well tissue culture plates) in fresh media. After 24 h, cells were treated with drugs or DMSO at the indicated concentrations, in duplicates. After 14 days cells were stained with 0.5% (w/v) crystal violet in 70% ethanol and the number of colonies was counted.
In general terms: Formazan colour is commonly taken as a measure of viable cells.

The subject of test [2] is Mel624. The experiment in a line: WST-1 cell proliferation assay (Example 2). The format is cell-based. The settings on record: for sensitivity of the cell line compared to other cell lines (e.g. A375, Mel888): Mel624, short-term and long-term proliferation assays, Example 2. The procedure:
as §1, §2, §3, §4

The next test concerns SKMEL 28. Kind of test: WST-1 cell proliferation assay (Example 2). The format is cell-based. The procedure:
as §1, §3

The next test relates to A375. The experiment in a line: WST-1 cell proliferation assay (Example 2). It counts as cell-based. The protocol:
as §1, §3

Another test deals with Mel888. Kind of test: WST-1 cell proliferation assay (Example 2). It counts as cell-based. The protocol:
as §1, §3

The next test deals with Mel10. Kind of test: WST-1 cell proliferation assay (Example 2). The format is cell-based. The procedure:
as §1, §3

Test [3] deals with A2058. The experiment in a line: Short-term growth-inhibition assay (Example 1). It counts as cell-based. The note with it: A2058; short-term and long-term proliferation assays, Example 1. The protocol:
(§5) FIGS. 1A-1B: Short-term growth-inhibition assay of a panel of melanoma cell lines including BRAF (V600E) cell lines and an NRAS (Q61R) mutated cell line. FIG. 1A. Cells were treated with increasing concentrations of N-[3-[(5-Chloro-1H-pyrrolo[2,3-b]pyridin-3-yl)carbonyl]-2,4-difluorophenyl]-1-propanesulfonamide (PLX-4720) for 72 h and cell viability was determined using CellTiter-Blue by measuring the absorbance at 540 nm in a microplate reader. Error bars show data +standard error. Means were derived from four replicates (n=4). FIG. 1B. Long-term colony formation assay of the indicated cells. Cells were grown in the absence or presence of PLX-4720 at the indicated concentrations for 15-20 days. For each cell line, all dishes were fixed at the same time, stained and photographed. […]
(§6) The inventors quantified the effect of exposing these cell lines to PLX-4720 on the half-maximum inhibitory concentration (IC50) (Table 1).

The test system of test [4] is Mel624. Kind of test: Short-term growth-inhibition assay (Example 1). The format is cell-based. The note with it: Mel624; short-term and long-term proliferation assays, Example 1. The procedure: as §5, §6
A further test concerns melanoma. The note with it: patients, cited from earlier work.
The mark [5] stands for this setting: Homo sapiens, SK-MEL-28, SKMEL 28, 48 h, read-out: IC50.
Where [6] appears, read: Homo sapiens, A-375, A375, 48 h, read-out: IC50.

Like-named read-outs stand apart in the source and are kept apart here.

The term IC50 denotes the concentration at which inhibition is half-maximal. Turning to `O=C(NOC[C@H](O)CO)c1ccc(F)c(F)c1Nc1ccc(I)cc1F` [PD 0325901], the “sensitivity of the cell line compared to other cell lines (e.g. A375, Mel888)” value with A2058 [1] and with Mel624 [2] was “less sensitive” throughout. The IC50 in the test on A2058 [1] (Homo sapiens, read-out: IC50) was determined as 0.033 µM; in the test on Mel624 [2] (Mel624, 48 h, read-out: IC50), 0.096 µM; with SKMEL 28 (setting [5]), 0.009 µM; with A375 (setting [6]) it was 0.01 µM; in the test on Mel888 (Mel888, 48 h, read-out: IC50), 0.002 µM; in the test with Mel10 (MEL10, 48 h, read-out: IC50), 0.003 µM.
In the case of `CCCS(=O)(=O)Nc1ccc(F)c(C(=O)c2c[nH]c3ncc(-c4ccc(Cl)cc4)cc23)c1F` [Vemurafenib], the IC50 in the test on A2058 [1] (Homo sapiens, read-out: IC50) is 2.4 µM; in the test with Mel624 [2] (Mel624, 48 h, read-out: IC50) it was 2 µM; in the test on SKMEL 28 (setting [5]), 0.4 µM; in the test with A375 (setting [6]), 0.4 µM; in the test with Mel888 (Mel888, 48 h, read-out: IC50), 0.1 µM; in the test on Mel10 (MEL10, 48 h, read-out: IC50), over 10 µM.
As for `Nc1ncnc2n[nH]c(Nc3ccc(F)cc3)c12` [CGP 57380], the IC50 was over 100 µM in the test on A2058 [1] (read-out: IC50); over 100 µM in the test with Mel624 [2] (Mel624, 48 h, read-out: IC50); 60 µM with SKMEL 28 (SKMEL 28, 48 h, read-out: IC50); 35 µM with A375 (A375, 48 h, read-out: IC50); 25 µM in the test on Mel888 (Mel888, 48 h, read-out: IC50); 28 µM in the test on Mel10 (MEL10, 48 h, read-out: IC50). For the same molecule, the “sensitivity of the cell line compared to other cell lines (e.g. A375, Mel888)” value with A2058 [1] and in the test with Mel624 [2] was “less sensitive” throughout.
For the molecule `COC(=O)[C@H]1[C@@H](O)[C@@]2(O)c3c(OC)cc(O[C@@H]4O[C@@H]([C@H](O)CO)CO[C@H]4OC)cc3O[C@@]2(c2ccc(OC)cc2)[C@@H]1c1ccccc1` [Silvestrol], the IC50 in the test on A2058 [1] (Homo sapiens) was 0.002 µM; in the test with Mel624 [2] (48 h), 0.004 µM; with SKMEL 28 (Homo sapiens, SK-MEL-28, 48 h), 0.003 µM; with A375 (Homo sapiens, A-375, 48 h) it was 0.021 µM; in the test with Mel888 (48 h) it was 0.017 µM; in the test on Mel10 (48 h), 0.046 µM.
Take `O=C(O)C(Cc1ccccc1[N+](=O)[O-])=NNc1nc(-c2ccc(Cl)c(Cl)c2)cs1` (mixture of isomers) [4EGi-1]: the IC50 is 50 µM in the test on A2058 [1] (read-out: IC50); 26 µM in the test on Mel624 [2] (Mel624, 48 h, read-out: IC50); over 100 µM with SKMEL 28 (SKMEL 28, 48 h, read-out: IC50); over 100 µM with A375 (A375, 48 h, read-out: IC50); 77 µM with Mel888 (Mel888, 48 h, read-out: IC50); over 100 µM in the test on Mel10 (MEL10, 48 h, read-out: IC50). Moreover, the “sensitivity of the cell line compared to other cell lines (e.g. A375, Mel888)” value in the test with A2058 [1] and with Mel624 [2] was “more sensitive” throughout. In addition, the “sensitivity of the cell line compared to the other BRAF (V600E)-mutated melanoma cell lines” value in the test with A2058 [3] and in the test on Mel624 [4] was “more sensitive” throughout.
On to `CC(C)(C)c1nc(-c2cccc(NS(=O)(=O)c3c(F)cccc3F)c2F)c(-c2ccnc(N)n2)s1` [dabrafenib], for which the “response rate (objective responses)” value in the test with melanoma was 50%. Further, in the test on melanoma (compared with chemotherapy), the progression-free survival is on record as 5.1 months. Further, the “progression-free survival hazard ratio” value with melanoma (versus chemotherapy) is 0.30.

The values above are taken from patent US20240393340A1, “PROGNOSIS AND PREDICTIVE BIOMARKERS AND BIOLOGICAL APPLICATIONS THEREOF” (INSTITUT GUSTAVE ROUSSY, priority 2013, published 2024).
